Source: ChEMBL document CHEMBL1201862, “PubChem BioAssay data set” (2004)
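Step 1: Grow cells in 96-well plates. Step 2: Expose to compound for 48 hours at 5 concentrations. Step 3: Interpolate endpoints linearly; if unreached, use highest concentration. GI50: concentration for 50% inhibition of growth.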 Active and inactive are the calls of the source. Rule as the data show it: active = GI50 up to about 1.1 µM and inactive = higher.

Key:
Test in all cases: NCI anticancer screen, dose series, 48 h
786-0 = test system: 786-0
A498 = test system: A498
A549 = test system: A549
ACHN = test system: ACHN
BT-549 = test system: BT-549
COLO 205 = test system: COLO 205
DU-145 = test system: DU-145
EKVX = test system: EKVX
HCT-116 = test system: HCT-116
HCT-15 = test system: HCT-15
HOP-62 = test system: HOP-62
LOX IMVI = test system: LOX IMVI
M14 = test system: M14
MCF7 = test system: MCF7
NCI-H226 = test system: NCI-H226
NCI-H23 = test system: NCI-H23
NCI-H460 = test system: NCI-H460
NCI-H522 = test system: NCI-H522
NCI/ADR-RES = test system: NCI/ADR-RES
OVCAR-5 = test system: OVCAR-5
OVCAR-8 = test system: OVCAR-8
PC-3 = test system: PC-3
RXF 393 = test system: RXF 393
SF-295 = test system: SF-295
SK-MEL-5 = test system: SK-MEL-5
SK-OV-3 = test system: SK-OV-3
SNB-19 = test system: SNB-19
SNB-75 = test system: SNB-75
TK-10 = test system: TK-10
UACC-257 = test system: UACC-257
UACC-62 = test system: UACC-62
UO-31 = test system: UO-31
CAKI-1 = test system: CAKI-1
CCRF-CEM = test system: CCRF-CEM
HCC 2998 = test system: HCC 2998
HL-60 = test system: HL-60
HOP-92 = test system: HOP-92
HT-29 = test system: HT-29
Hs-578T = test system: Hs-578T
IGROV-1 = test system: IGROV-1
K562 = test system: K562
KM12 = test system: KM12
MDA-MB-231 = test system: MDA-MB-231
MDA-MB-435 = test system: MDA-MB-435
MDA-N = test system: MDA-N
MOLT-4 = test system: MOLT-4
Malme-3M = test system: Malme-3M
OVCAR-3 = test system: OVCAR-3
OVCAR-4 = test system: OVCAR-4
RPMI-8226 = test system: RPMI-8226
SF-268 = test system: SF-268
SF-539 = test system: SF-539
SK-MEL-28 = test system: SK-MEL-28
SK-MEL-2 = test system: SK-MEL-2
SN12C = test system: SN12C
SR = test system: SR
SW-620 = test system: SW-620
T47D = test system: T47D
U-251 = test system: U-251

CCN1C/C(=C\c2ccc(Cl)cc2)C2=NN(c3ccccc3)C(c3ccc(Cl)cc3)C2C1 (stereo not given)
GI50 (786-0): > 100 µM (inactive) | GI50 (A498): > 100 µM (inactive) | GI50 (A549): > 100 µM (inactive) | GI50 (ACHN): > 100 µM (inactive) | GI50 (BT-549): > 100 µM (inactive) | GI50 (COLO 205): > 100 µM (inactive) | GI50 (DU-145): > 100 µM (inactive) | GI50 (EKVX): > 100 µM (inactive) | GI50 (HCT-116): > 100 µM (inactive) | GI50 (HCT-15): > 100 µM | GI50 (HOP-62): > 100 µM (inactive) | GI50 (LOX IMVI): > 100 µM (inactive) | GI50 (M14): > 100 µM (inactive) | GI50 (MCF7): 53.1 µM (inactive) | GI50 (NCI-H226): > 100 µM (inactive) | GI50 (NCI-H23): > 100 µM (inactive) | GI50 (NCI-H460): > 100 µM (inactive) | GI50 (NCI-H522): > 100 µM (inactive) | GI50 (NCI/ADR-RES): > 100 µM (inactive) | GI50 (OVCAR-5): > 100 µM (inactive) | GI50 (OVCAR-8): > 100 µM (inactive) | GI50 (PC-3): > 100 µM (inactive) | GI50 (RXF 393): > 100 µM (inactive) | GI50 (SF-295): > 100 µM (inactive) | GI50 (SK-MEL-5): > 100 µM (inactive) | GI50 (SK-OV-3): > 100 µM (inactive) | GI50 (SNB-19): > 100 µM (inactive) | GI50 (SNB-75): > 100 µM (inactive) | GI50 (TK-10): > 100 µM (inactive) | GI50 (UACC-257): > 100 µM (inactive) | GI50 (UACC-62): > 100 µM (inactive) | GI50 (UO-31): > 100 µM (inactive)

COC1=CCC2=C(CCN(C(=O)C3CCC3)C2Cc2ccc(OC)c(O)c2)C1 (stereo not given)
GI50 (786-0): 18.2 µM (inactive) | GI50 (A498): 19.4 µM (inactive) | GI50 (A549): 31.6 µM (inactive) | GI50 (ACHN): 35.4 µM (inactive) | GI50 (CAKI-1): 30.6 µM (inactive) | GI50 (CCRF-CEM): 21.8 µM (inactive) | GI50 (COLO 205): 16 µM (inactive) | GI50 (DU-145): 20.3 µM (inactive) | GI50 (EKVX): 25.7 µM (inactive) | GI50 (HCC 2998): 15.1 µM (inactive) | GI50 (HCT-116): 11.9 µM (inactive) | GI50 (HCT-15): 4.85 µM | GI50 (HL-60): 4.3 µM (inactive) | GI50 (HOP-62): 14.3 µM (inactive) | GI50 (HOP-92): 20.9 µM (inactive) | GI50 (HT-29): 20.3 µM (inactive) | GI50 (Hs-578T): 14.6 µM (inactive) | GI50 (IGROV-1): 26.8 µM (inactive) | GI50 (K562): 4.45 µM (inactive) | GI50 (KM12): 6.18 µM (inactive) | GI50 (LOX IMVI): 36.6 µM (inactive) | GI50 (M14): 16.9 µM (inactive) | GI50 (MCF7): 7.14 µM (inactive) | GI50 (MDA-MB-231): 21.1 µM (inactive) | GI50 (MDA-MB-435): 3.09 µM (inactive) | GI50 (MDA-N): 2.7 µM (inactive) | GI50 (MOLT-4): 12.7 µM (inactive) | GI50 (Malme-3M): 26.6 µM (inactive) | GI50 (NCI-H226): 49.1 µM (inactive) | GI50 (NCI-H23): 10 µM (inactive) | GI50 (NCI-H460): 12.2 µM (inactive) | GI50 (NCI-H522): 16.6 µM (inactive) | GI50 (NCI/ADR-RES): 9.82 µM (inactive) | GI50 (OVCAR-3): 5.93 µM (inactive) | GI50 (OVCAR-4): 23 µM (inactive) | GI50 (OVCAR-5): 29.5 µM (inactive) | GI50 (OVCAR-8): 37.2 µM (inactive) | GI50 (PC-3): 23.6 µM (inactive) | GI50 (RPMI-8226): 29.4 µM (inactive) | GI50 (RXF 393): 4.68 µM (inactive) | GI50 (SF-268): 33.1 µM (inactive) | GI50 (SF-295): 15.9 µM (inactive) | GI50 (SF-539): 30.5 µM (inactive) | GI50 (SK-MEL-28): 45.3 µM (inactive) | GI50 (SK-MEL-2): 24.2 µM (inactive) | GI50 (SK-MEL-5): 8.34 µM (inactive) | GI50 (SK-OV-3): 20.5 µM (inactive) | GI50 (SN12C): 19.5 µM (inactive) | GI50 (SNB-19): 35.8 µM (inactive) | GI50 (SNB-75): 10.7 µM (inactive) | GI50 (SR): 5.69 µM (inactive) | GI50 (SW-620): 12.8 µM (inactive) | GI50 (T47D): 19.4 µM (inactive) | GI50 (TK-10): 17.5 µM (inactive) | GI50 (U-251): 28.9 µM (inactive) | GI50 (UACC-257): 17.3 µM (inactive) | GI50 (UACC-62): 20.4 µM (inactive)

COC(=O)c1ccc2c(c1)CC1(C2)Cc2ccccc2C1=O (stereo not given)
GI50 (786-0): 40.2 µM (inactive) | GI50 (A498): 37.6 µM (inactive) | GI50 (A549): 53.1 µM (inactive) | GI50 (ACHN): 29.7 µM (inactive) | GI50 (CAKI-1): 34.7 µM (inactive) | GI50 (CCRF-CEM): 19.9 µM (inactive) | GI50 (COLO 205): 18 µM (inactive) | GI50 (DU-145): 36.3 µM (inactive) | GI50 (EKVX): 29.5 µM (inactive) | GI50 (HCC 2998): 54.5 µM (inactive) | GI50 (HCT-116): 23.8 µM (inactive) | GI50 (HCT-15): 36.2 µM | GI50 (HL-60): 26.5 µM (inactive) | GI50 (HOP-62): 38.5 µM (inactive) | GI50 (HOP-92): 18.1 µM (inactive) | GI50 (HT-29): 17.5 µM (inactive) | GI50 (Hs-578T): 69.7 µM (inactive) | GI50 (IGROV-1): 33.3 µM (inactive) | GI50 (K562): 30.3 µM (inactive) | GI50 (LOX IMVI): 22.4 µM (inactive) | GI50 (M14): 18.7 µM (inactive) | GI50 (MCF7): 22.9 µM (inactive) | GI50 (MDA-MB-231): 22.7 µM (inactive) | GI50 (MDA-MB-435): 24.5 µM (inactive) | GI50 (MDA-N): 27.7 µM (inactive) | GI50 (MOLT-4): 15.4 µM (inactive) | GI50 (Malme-3M): 20.8 µM (inactive) | GI50 (NCI-H226): 15.1 µM (inactive) | GI50 (NCI-H23): 29.5 µM (inactive) | GI50 (NCI-H460): > 100 µM (inactive) | GI50 (NCI-H522): 25.3 µM (inactive) | GI50 (NCI/ADR-RES): 27.6 µM (inactive) | GI50 (OVCAR-3): 29.1 µM (inactive) | GI50 (OVCAR-4): 32.3 µM (inactive) | GI50 (OVCAR-5): 72.3 µM (inactive) | GI50 (OVCAR-8): 38.5 µM (inactive) | GI50 (PC-3): 42.8 µM (inactive) | GI50 (RPMI-8226): 13.4 µM (inactive) | GI50 (RXF 393): 33.3 µM (inactive) | GI50 (SF-268): 35 µM (inactive) | GI50 (SF-295): 39.4 µM (inactive) | GI50 (SF-539): 38.6 µM (inactive) | GI50 (SK-MEL-28): 14.8 µM (inactive) | GI50 (SK-MEL-2): 27.4 µM (inactive) | GI50 (SK-MEL-5): 17.9 µM (inactive) | GI50 (SK-OV-3): 68.4 µM (inactive) | GI50 (SN12C): 25.9 µM (inactive) | GI50 (SNB-19): 66.1 µM (inactive) | GI50 (SNB-75): 24.3 µM (inactive) | GI50 (SR): 22.2 µM (inactive) | GI50 (SW-620): 32.7 µM (inactive) | GI50 (T47D): 37.8 µM (inactive) | GI50 (TK-10): 31 µM (inactive) | GI50 (U-251): 34.2 µM (inactive) | GI50 (UACC-257): 15.1 µM (inactive) | GI50 (UO-31): 22.4 µM (inactive)
